Test results from patent US12097190B2, “Therapeutic use of levorotatory β-lactams in hematopoiesis, immuno-oncology therapy, and regulation of lipoprotein and apolipoprotein levels” (Alpha-1 Biologics, LLC, priority 2017, dated 2024).

Key:
[1] = target: T1, cell surface human leukocyte elastase (HLE-CS) (Homo sapiens, UniProt P08246); assay: Adherence of U937 cells to compound-coated glass (binding to HLE-CS); assay type: cell-based; conditions: 2,000 U937 cells added per compound-treated well; for Adherent Cells: at optimal adherence concentration
T1 construct: endogenous in cells
T1 sequence (P08246 30-267): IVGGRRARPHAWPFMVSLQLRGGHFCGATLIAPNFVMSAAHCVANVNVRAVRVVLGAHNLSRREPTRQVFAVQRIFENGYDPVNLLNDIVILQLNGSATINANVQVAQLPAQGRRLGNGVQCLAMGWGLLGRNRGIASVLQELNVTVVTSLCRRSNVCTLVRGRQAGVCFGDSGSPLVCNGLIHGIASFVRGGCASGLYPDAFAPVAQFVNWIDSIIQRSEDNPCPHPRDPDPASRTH
Description: Adherence is the first step in cell migration and requires […] calcium, magnesium, signaling, or energy. […] […] After washing and fixing the cells, the number of adherent cells were counted microscopically.

[2] = target: T2, soluble, granule-associated human leukocyte elastase (HLE-G) (Homo sapiens, UniProt P08246); assay: Inhibition of soluble human leukocyte elastase (HLE-G), SA3NA substrate, 405 nm; assay type: biochemical; conditions: for IC50: IC50 of compound versus HLE-G (75 μM); for Molar Excess**: Molar excess of compound to HLE-G at IC50
T2 sequence (P08246 30-267): T1 sequence (P08246 30-267)
Protocol: The procedures for measuring the capacity of substances to inhibit soluble forms of elastase or HLE-G are well known to those of ordinary skill in the art (U.S. Pat. No. 6,887,678; Bristow et al., 1998). Briefly, soluble human leukocyte elastase (HLE-G) is incubated for 2 minutes with a test substance, and to this mixture is added the elastase substrate succinic-L-Ala-L-Ala-L-Ala-p-nitroanilide (SA3NA, Sigma-Aldrich). Results are detected by measuring the color change at 405 nm.
Assay 1: Inhibition of HLE (microplate assay, 10 tests per plate) as described in Example 2 above and previously published (Bristow et al., 1998).

E. coli DH5-Alpha = assay: Kirby-Bauer Disk Test, zones of inhibition; assay type: cell-based; conditions: for zone of inhibition at 5000 µM: 5 mM
Protocol: […] At this concentration of cells, bacteria were spread on Mueller-Hinton agar plates. […] After incubation for 16 hours at 37° C., plates were examined for zones of inhibition.

LDL = assay: Diet-induced obesity (DIO) mouse model, serum LDL levels; assay type: in vivo; conditions: week 6, normalized to vehicle
Protocol: The well-known Jackson Laboratory (Bar Harbor, Me.) C57BL/6 Diet-Induced Obesity (DIO) mouse model represents human metabolic syndrome and elevated LDL levels. Mice are fed a high fat diet (60% fat) or normal diet (10% fat) for various periods of time and lipoprotein levels were measured. […] In accordance with a protocol used in a recently conducted human clinical trial (NCT01731691), mouse peripheral blood was collected into blood collection tubes, and serum was analyzed for lipoprotein levels using Beckman Coulter AU680 Chemistry System. In addition, cells were analyzed by flow cytometry to quantitate lymphocyte subsets including CD3, CD4, and CD8. As compared to baseline levels (before treatment), lipoprotein levels (including, but not limited to total cholesterol, HDL, LDL, apoA, apoB, apoC, apoE) and blood cells expressing the above mentioned cellular markers were quantitated to determine changes due to treatment. Diet-induced obesity mice (DIO, Jackson Laboratory) were fed a 60% fat diet for 17 weeks. […] Because mice were maintained on the DIO diet throughout the study, body weight and LDL levels increased in the vehicle control (Group 1). To compare the effectiveness of compounds, mean values within each treatment group were normalized by forming a ratio to mean values of vehicle, and the ratio was expressed as normalized % change using to the formula: 100−(Treatment mean/Vehicle mean*100).

U937 Clone 10 cells = assay: Receptor polarization, cell migration and SHIV endocytosis in preconditioned cells; assay type: cell-based, human
Protocol: The procedures for inducing receptor polarization have been described (Bristow et al., 2003).
To examine receptor polarization, microscope slides are prepared by adding serial dilutions of a β-lactams. Cells are added to the microscope slides and incubated for 30 minutes in humidified 5% CO2 at 37° C. Unattached cells are removed by washing, and attached cells are fixed by application of 4% paraformaldehyde after which attached cells are counted by light microscopy and photographed using confocal microscopy
Receptor Polarization: U937 Clone 10 cells were cultured overnight in AIM-V serum-free medium. Cells were pelleted, re-suspended in AIM-V at 2×10^6/ml, and 250 μl (5×10^5 cells) was added to Eppendorf tubes pre-coated to prevent attachment.
Binding and Endocytosis: AT 2 chemically inactivated SHIV preparations, consisting of non-infectious virus with conformationally and functionally intact envelope glycoproteins, were provided by the AIDS Vaccine Program (SAIC Frederick, Frederick, Md.). Cells were pulsed with virus (30 ng p27 or p24 per 10^6 cells) for 2 hr. at 2° C. which allows binding, but prevents endocytosis. Alternatively, cells were pulsed with virus for 2 hr. at 37° C. which allows binding and endocytosis. Following pulsing for 2 hr., cells were mounted on Alcian blue slides for microscopy. The presence of inactivated virus in test cells was detected using dodecameric human CD4+-IgG1 provided by the Laboratory of Immunoregulation, NIAID, NIH. This reagent specifically recognizes conformationally intact HIV 1/SIV envelope gp120. CD4-IgG1 was detected using HRP-conjugated Rb anti-human IgG (Sigma). CD4+ IgG-labeled cells were coupled to Oregon 488 fluorochrome using the tyramide signal amplification system (Life Science Products, Boston, Mass., USA). […] Cells were analyzed using 2 μm scanning from 3B.

T lymphocytes = assay: Effect on T cell numbers in C57BL6 mice, flow cytometry; assay type: in vivo, mouse; conditions: 5 mg/kg oral gavage, 2 weeks of treatment, change from baseline
Protocol: Compounds were delivered by oral gavage 5 days per week. Blood was collected weekly for detection of CD3e, CD4, and CD8a T cells by flow cytometry using the mouse T lymphocyte subset antibody cocktail with isotype control (BD Biosciences). The study was performed at the Division of Laboratory Animal Research, Stony Brook University, Stony Brook, N.Y. Staining and statistical analysis was performed by Alpha-1 Biologics, and the samples were acquired by the Flow Cytometry Laboratory, Stony Brook Hospital, using a BD LSRFortessa instrument. […] Data were normally distributed and compared using Student's T-test. Mean % Change in CD3+ T cells for vehicle was −11% and for CD4+CD8+ progenitors was −13%. […] Average percent change from baseline is represented in FIGS. 6A and 6B where % change=100×[(Treatment Mean-Baseline)/Baseline].

[3] = tested on: HIV permissive (plus) clone 10; assay: Adherence assay on coverslips, U937 plus clone 10; assay type: cell-based, human
Protocol: To coverslips prepared with chemoattractants as described above, 10^6 cells in 90 μl HBSS were mixed to uniformity, and incubated for 30 min in humidified 5% CO2 at 37° C. without dehydration. To detect interacting effects of stimulants, cells were delivered in an 80 μl volume to coverslips previously prepared with 10 μl of one stimulant, mixed to uniformity, and incubated for 15 min at 37° C. Subsequently, an additional stimulant was delivered in a 10 μl volume to each coverslip, mixed with pre-incubated cells to uniformity, and incubated for 30-60 min at 37° C. […] Slides were examined by epi-illumination UV microscopy on a Zeiss Axioskop Means and standard deviations were determined by counting adherent cells in at least three fields/coverslip.
Means and standard deviations represent the difference between stimulated and unstimulated adherence. […] Adherence was optimized for each chemoattractant and adherence induced by each chemoattractant was enumerated in more than three separate experiments.

elastase = conditions: inhibition of elastase activity as described in the package insert; cited from earlier work
[4] = tested on: transplanted human stem cells, transplanted AML cells; conditions: mouse model; cited from earlier work
[5] = tested on: Human acute myeloid leukemia cells (AML); conditions: cited from earlier work
CD4+ T lymphocytes = conditions: cited from earlier work
[6] = Escherichia coli, DH5ALPHA, 10 μl per disk, 16 hours at 37° C., read-out: diameter of zone of inhibition

Compound | Optimal Adherence Concentration (nM)*** [1] [nM] | Adherent Cells [1] | IC50 [2] [µM] | Molar Excess** [2] | other results
CC1(C)S[C@@H]2[C@H](NC(=O)[C@H](N)c3ccccc3)C(=O)N2[C@H]1C(=O)O [D-Ampicillin, Ampicillin] |  |  |  |  | activity in the Kirby-Bauer Disk Test (E. coli DH5-Alpha; 0.5 mM): exhibits activity; zone of inhibition at 500 µM (E. coli DH5-Alpha; Escherichia coli, DH5ALPHA, 0.5 mM, 10 μl per disk, 16 hours at 37° C., read-out: diameter of zone of inhibition): 15 mm; zone of inhibition at 5000 µM (E. coli DH5-Alpha; [6]): 30 mm
C[C@@H](O)[C@H]1C(=O)N2C(C(=O)O)=C([C@H]3CCCO3)S[C@H]12 [Faropenem] | 10 | 23 ± 4 | 203 | 2.7 | 
CC1(C)SC2C(NC(=O)C(N)c3ccccc3)C(=O)N2C1C(=O)O [L-Ampicillin, (2S,5R,6R)-6-((S)-2-amino-2 phenylacetamcido)-3,3-dimethyl-7-oxo-4-thia-1-azabicyclo[3.2.0] heptane-2-acid] |  |  |  |  | normalized mean % change in LDL (LDL; 5 mg/kg oral gavage 5 days per week): −41.0±20.5%; normalized mean % change in LDL (LDL; 50 mg/kg oral gavage 5 days per week): 3.7%; activity in the Kirby-Bauer Disk Test (E. coli DH5-Alpha; 0.5 mM): ineffective as an antibiotic; zone of inhibition at 5000 µM (E. coli DH5-Alpha; [6]): 14 mm; cell motility (morphology by confocal microscopy) (U937 Clone 10 cells): exhibited the morphology of cells undergoing cell motility; receptor polarization (U937 Clone 10 cells): induces receptor polarization; cell migration and endocytosis (SHIV) (U937 Clone 10 cells; FIGS. 3A and 3B): stimulation of cell migration and endocytosis; Mean % Change in CD3+ T cells (T lymphocytes): +16%; Mean % Change in CD4+CD8+ progenitors (T lymphocytes): +38%
CC1(C)S[C@@H]2[C@H](NC(=O)COc3ccccc3)C(=O)N2[C@H]1C(=O)O [Pen V, Penicillin V] | 10 | 30 ± 4 | 262 | 3.5 | 
MAAPVCK [methoxysuccinyl-L-Ala-L-Ala-L-Pro-L-Val-chloromethylketone] |  |  |  |  | stimulation of adherence [3]: stimulated to adhere
N-tosyl-L-phenylalanine chloromethylketone [TPCK] |  |  |  |  | stimulation of adherence [3]: stimulated to adhere
PROLASTIN-C®: human α1PI, cryoprecipitate preparation isolated from human plasma (Grifols) |  |  |  |  | specific activity (elastase): 70%
Phe-Leu-Gly-Phe-Leu (FLGFL; printed: Phe-Leu-Gly-Phe-Leu) [synthetic peptide representative of the HIV fusion domain] |  |  |  |  | stimulation of adherence [3]: stimulated to adhere
α1PI: abundant proteinase inhibitor alpha-1 proteinase inhibitor (α1PI, α1 antitrypsin) |  |  |  |  | homing of stem cells to and egress of AML cells from bone marrow [4]: inhibited homing of transplanted human stem cells to bone marrow and egress of transplanted AML cells from bone marrow; SDF-1-induced pseudopodia formation ([5]; AML cells): prevented; SDF-1 dependent migration ([5]; pre-incubation of AML cells): significantly reduced; CD4+ counts (CD4+ T lymphocytes; HIV-1-infected patients with acquired and uninfected patients with inherited α1PI deficiency): caused an increase in CD4+ counts; LDL in subjects (CD4+ T lymphocytes; α1PI treatment): produced decreased LDL

Now from value to compound, other results behind:

Optimal Adherence Concentration (nM)*** [1] [nM] | Adherent Cells [1] | IC50 [2] [µM] | Molar Excess** [2] | Compound | other results
1 | 54 ± 20 |  |  | CC1(C)S[C@@H]2[C@H](NC(=O)[C@H](N)c3ccc(O)cc3)C(=O)N2[C@H]1C(=O)O [Amoxicillin] | 
1 | 33 ± 4 | 234 | 3.1 | C[C@H]1[C@H](NC(=O)/C(=N\OC(C)(C)C(=O)O)c2csc(N)n2)C(=O)N1S(=O)(=O)O [Aztreonam] | 
1 | 34 ± 8 | 167 | 2.2 | CO/N=C(\C(=O)N[C@@H]1C(=O)N2C(C(=O)O)=C(COC(N)=O)CS[C@H]12)c1ccco1 [Cefuroxine, Cefuroxime] | 
10 | 27 ± 10 |  |  | CC1=C(C(=O)O)N2C(=O)[C@@H](NC(=O)[C@H](N)c3ccccc3)[C@H]2SC1 [Cephalexin] | 
1 | 26 ± 9 | 232 | 3.1 | Cc1onc(-c2c(Cl)cccc2Cl)c1C(=O)N[C@@H]1C(=O)N2[C@@H]1SC(C)(C)[C@@H]2C(=O)O [Dicloxacillin] | 
100 | 52 ± 6 | 178 | 2.4 | C[C@@H](O)[C@H]1C(=O)N2C(C(=O)O)=C(S[C@@H]3CN[C@H](CNS(N)(=O)=O)C3)[C@H](C)[C@H]12 [Doripenem] | 
100 | 40 ± 3 | 277 | 3.7 | O=C1[C@H](CC[C@H](O)c2ccc(F)cc2)[C@@H](c2ccc(O)cc2)N1c1ccc(F)cc1 [Ezetimibe] | normalized mean % change in LDL (LDL; 10 mg/kg oral gavage 5 days per week): −43.8±29.6%
